# Source: patent publication US8987272B2, “Compounds and method for treatment of HIV” (priority 2010, dated 2015)
# Several values for one entry are separate records, joined by “and”; a condition that tells them apart may be missing. Identical values can stand only once. Entries after “also recorded” stand apart in the source; their conditions may differ. Like-named read-outs stand apart in the source and are kept apart here.
# Columns and labels:
# HIV-1 integrase [1] = molecular target: T1, HIV-1 integrase (Human immunodeficiency virus type 1 group M subtype B (isolate HXB2) (HIV-1), UniProt P04585); assay: biochemical; assay type: biochemical
# Procedure: The capacity of the compound to inhibit HIV integrase in a cell-free system was assessed. An HIV Integrase Assay System (XpressBio Life Science Products; Thurmont, Md., www.expressbio.com) was used. In brief, double-stranded HIV-1 donor substrate (the U5 long terminal repeat) was immobilized in 96-well plates. Recombinant HIV-1 integrase protein was added, along with an oligonucleotide target substrate. The integrase cleaves the donor substrate and integrates it into the target substrate, which is now in solution phase—the integrated product (the amount is indicative of integrase activity) was detected using an antibody specific for the recombinant target/donor sequence. Inhibitors added along with the donor substrate reduced the amount of product. […] The capacity of a compound known to inhibit HIV integrase activity (NaN3) was assessed as a positive control. All assessed inhibitions were compared to controls treated with vehicle only (compounds dissolved in 100% DMSO, then diluted in buffer to a maximum DMSO concentration of 0.1% DMSO).
# However, it should be kept in mind that indirect HIV integrase inhibition (which might possibly occur in living cells) will not be detected.
# COTI-HIV1Doxo was assayed for HIV-1 integrase activity, as described above. All measurements were made in quadruplicate (n=4) to allow statistical analysis of significance.
# HIV-1 integrase [2] = molecular target: T1, HIV-1 integrase; assay: biochemical; assay type: biochemical; remark: listed apart in the source
# Procedure: The effect of each compound on HIV integrase activity was assayed using the “HIV-1 Integrase Assay Kit” version 2.0, catalogue number EZ-1700 obtained from XpressBio Life Science Products. Immediately prior to the start of the assay, both compounds were dissolved in dimethyl sulfoxide (DMSO) and used immediately in the HIV integration assay. The assay was performed according to the instructions listed by the manufacturer (XpressBio Life Science Products, Maryland, USA). In brief, the required streptavidin-coated strip wells were coated with DS oligo and placed overnight at 4° C. The plates were then incubated with integrase and followed by the addition of test articles at the desired concentration. The plates were developed using the supplied HRP antibody and TMB peroxidase substrate as per the manufacturer's instructions. The reactions were stopped with TMB stop solution and immediately read (<10 min) using a VICTOR XXX. The absorbance of each well was read at 450 nm for 0.5 sec. All measurements were performed in triplicate.
# The background absorbance was subtracted from the raw data of each sample to yield “background corrected” absorbance values. […] The CV=% SD for the 100% integrase alone control.
# To determine the IC50 of each test compound, non-linear regression analysis was used.
# Because the top and the bottom plateaus can be defined by solid control data (eg. sodium azide), the data was fitted to a normalized model in order to calculate the IC50. […] Since 6 compound concentrations were tested in triplicate, the data was analyzed using the standard slope model, in contrast with the variable slope model.
# [3] = all concentrations tested (lowest 1 nM)
smiles,measurement,setting,value
"Cn1cnc(-c2nnc(Cc3ccc(F)cc3)o2)c(O)c1=O [COTI-HIV1Doxo, 6-[5-(4-Fluoro-benzyl)-[1,3,4]oxadiazol-2-yl]-5-hydroxy-3-methyl-3H pyrimidin-4-one]",IC50,HIV-1 integrase [1],~10 µM
same,effect on HIV-1 integrase activity,"HIV-1 integrase [1]; 1 nM, listed as COTI-HIV-1 ketone derivative",enhanced HIV-1 integrase activity; also recorded: slightly but significantly enhanced HIV-1 integrase activity
same,effect on HIV-1 integrase activity,HIV-1 integrase [1]; 100 nM,inhibited HIV-1 integrase; also recorded: significantly reduce HIV-1 integrase activity
same,effect on HIV-1 integrase activity,HIV-1 integrase [1]; all higher tested concentrations (up to 100 μM),significantly decreased HIV-1 integrase activity
same,complete inhibition of integrase activity,HIV-1 integrase [1]; up to 100 μM,not observed
Cn1nc(C(=O)NCc2ccc(F)cc2)/c(=N\O)c2ncccc21 [COTI-HIV28236],IC50,HIV-1 integrase [2],14 µM
same,inhibition of HIV-1 integrase,HIV-1 integrase [2]; [3],significantly inhibited HIV-1 integrase; also recorded: significantly inhibit HIV-1 integrase activity
same,reduction in HIV-1 integrase activity,HIV-1 integrase [2]; at 100 μM,At least 50%
Cn1nc(-c2nnc(Cc3ccc(F)cc3)o2)/c(=N\O)c2ncccc21 [COTI-HIV1Oxime],IC50,HIV-1 integrase [2],23.9 µM
same,percent of the total control activity,HIV-1 integrase [2]; at 100 μM,34.82%
same,reduction in HIV-1 integrase activity,HIV-1 integrase [2]; at 100 μM,At least 50%
same,inhibition of HIV-1 integrase,"HIV-1 integrase [2]; at 100 μM, listed as COTI-HIV28233",significantly inhibited HIV-1 integrase; also recorded: significantly reduce activity
same,inhibition of HIV-1 integrase activity,HIV-1 integrase [2]; at low concentrations,modestly inhibit HIV-1 integrase activity
"[N-]=[N+]=[N-].[Na+] [sodium azide, reference compound]",effect of positive control on HIV-1 integrase activity,HIV-1 integrase [1]; 1.0% or 3.3%,effectively decreased HIV-1 integrase activity
same,effect of positive control on HIV-1 integrase activity,HIV-1 integrase [2]; positive control,effectively decrease HIV-1 integrase activity
same,calculated IC50 of sodium azide controls,HIV-1 integrase [2]; two controls run in parallel,0.12% and 0.14%
same,percent control activity,HIV-1 integrase [2]; with 10% sodium azide,0%
"Cn1cnc(-c2nnc(Cc3ccc(F)cc3)o2)c(O)/c1=N\O [COTI-HIV1DOxime, 6-[5-(4-fluoro-benzyl)-[1,3,4]oxadiazol-2-yl]-5-hydroxy-3-methyl-3H-pyrimidin-4-one oxime]",IC50,HIV-1 integrase [2],58.7 µM
same,inhibition of HIV-1 integrase,HIV-1 integrase [2]; [3],significantly inhibited HIV-1 integrase; also recorded: significantly inhibit HIV-1 integrase activity
